{"source": "patent US6472175B1", "about": "“Sialylation of N-linked glycoproteins in the baculovirus expression vector system” (Boyce Thompson Institute For Plant Research, Inc., priority 1999, dated 2002)", "key": {"[1]": {"system": "Tn-4h Insect Tissue Culture Cells", "experiment": "Measurement of total cellular sialic acid (colorimetric assay) in Tn-4h insect tissue culture cells", "type": "cell-based, Trichoplusia ni", "from_the_text": "Since substrate levels can affect sialylation, it was hypothesized that the microgravity-mediated sialylation might have resulted from an increase in substrate availability. […] This hypothesis was investigated further by comparing the concentration of sialic acid in cells grown in T-flasks and in HARV bioreactors."}, "[2]": {"system": "Tn-4h cells", "experiment": "Sialylation of baculovirus-expressed SEAP N-linked glycans, normal phase HPLC of 2-AB-labeled glycans", "type": "cell-based, Trichoplusia ni", "conditions": "normal gravity", "method": "Once the SEAP protein is purified, the oligosaccharide moieties are cleaved from the glycoprotein with peptide N-glycosidase F (cleaves oligomannose, hybrid and complex oligosaccharides with or without terminal sialic acid residues). The oligosaccharides are then bonded to a fluorophore marker. The labeled sugar can be digested with various glycosidases that cleave specific linkages. The samples are analyzed by HPLC. Normal phase HPLC fractionations are carried out with a 50 mM ammonium phosphate, pH 4.4, and acetonitrile gradient on a Glyco Sep-N column (OGS, Oxford, UK) by a technique being known in the art, and incorporated by reference (Guile et al., 1996; Mattu et al., 1998). The Glyco Sep-N column is capable of resolving both neutral and charged sugar residues based on hydrophilicity (related to the hydrodynamic volume and molecular size). To obtain accurate glucose equivalency values, the GlycoSep-N is calibrated with a 2-aminobenzamide (2-AB) labeled dextran hydrolysate ladder and glucose homopolymers. The 2-AB fluorescence is detected and quantified using a Waters^a 474 Scanning Fluorescence Detector (Waters Corporation, MA) at λex 330 nm and λcm 420 nm using a 16 μl flow cell.\nSince substrate levels can affect sialylation, it was hypothesized that the microgravity-mediated sialylation might have resulted from an increase in substrate availability. […]"}, "[3]": {"system": "mammalian (CHO) cells", "conditions": "cited from earlier work"}}}
{"smiles": "CC(=O)N[C@@H]1C(O)O[C@H](CO)[C@@H](O)[C@@H]1O", "note": "(stereo partly shown) [ManNAc, N-acetylmannosamine]", "values": [{"measurement": "change of sialic acid level, infected cells", "setting": "[1]; addition to culture medium, infected Tn-4h cells", "value": "not infected cells"}, {"measurement": "change of sialic acid level, uninfected cells", "setting": "[1]; addition to culture medium, uninfected Tn-4h cells", "value": "increased the levels of sialic acid in uninfected cells"}, {"measurement": "nMoles Sialic Acid per mg Cell Protein, Infected", "setting": "[1]; baculovirus infected Tn-4h cells, T-flask, medium supplemented with 5 mM ManNAc", "value": "98 ± 9 nMoles Sialic Acid per mg Cell Protein"}, {"measurement": "nMoles Sialic Acid per mg Cell Protein, Uninfected", "setting": "[1]; uninfected Tn-4h cells, T-flask, medium supplemented with 5 mM ManNAc", "value": "62 ± 7 nMoles Sialic Acid per mg Cell Protein"}, {"measurement": "sialylated SEAP glycans identified", "setting": "[2]; 5 mM in medium, stationary T-flasks, Tn-4h cells", "value": "five sialylated SEAP glycans were identified"}, {"measurement": "induction of complex, sialylated glycans on a secreted human glycoprotein", "setting": "[2]; culture media supplemented, insect tissue culture cells", "value": "induced to produce complex, sialylated glycans"}, {"measurement": "effect on sialylation", "setting": "[3]", "value": "increase sialylation"}]}
